Columns and labels:
Human BACE-1 = Human BACE-1 (Homo sapiens (Human), UniProt P56817); test: Test 1: Inhibition of Human BACE-1; type: biochemical; settings: recombinant BACE-1, pH 4.5, 1 hour preincubation
Protocol: Test 1: Inhibition of Human BACE-1
(§1) Recombinant BACE-1 (extracellular domain, expressed in baculovirus and purified using standard methods) at 0.1 to 1 nM concentrations is incubated with the test compound at various concentrations for 1 hour at room temperature in 100 mM acetate buffer, pH 4.5, containing 0.1% CHAPS. Activity was measured using a final concentration of 3 μM of the fluorescence-quenched substrate Q-C(HSO3)-Ile-Asp-Leu-Ala-Val-Leu-Asp-HN—CH2—CH2-Mca, where Q=2-nitro-5-amino benzoic acid and Mca=7-methoxy-4-coumarinyl acetic acid. Catalytic turnover was monitored in a Spectramax Gemini fluorescence plate reader (Molecular Devices) in black 96-well microplates using excitation/emission wavelength of 325 nm and 400 nm, respectively. Fluorescence increase was followed for 15 min, in 1 minute's intervals. The fluorescence/time slopes were calculated from duplicate wells and from wells without inhibitor and the IC50 values were calculated using a logistic 4-parameter model.

Human BACE-2 = Human BACE-2 (Homo sapiens (Human), UniProt Q9Y5Z0); test: Test 2: Inhibition of Human BACE-2; type: biochemical; settings: recombinant BACE-2, pH 4.5, 1 hour preincubation
Sequence of Human BACE-2 (Q9Y5Z0 63-473): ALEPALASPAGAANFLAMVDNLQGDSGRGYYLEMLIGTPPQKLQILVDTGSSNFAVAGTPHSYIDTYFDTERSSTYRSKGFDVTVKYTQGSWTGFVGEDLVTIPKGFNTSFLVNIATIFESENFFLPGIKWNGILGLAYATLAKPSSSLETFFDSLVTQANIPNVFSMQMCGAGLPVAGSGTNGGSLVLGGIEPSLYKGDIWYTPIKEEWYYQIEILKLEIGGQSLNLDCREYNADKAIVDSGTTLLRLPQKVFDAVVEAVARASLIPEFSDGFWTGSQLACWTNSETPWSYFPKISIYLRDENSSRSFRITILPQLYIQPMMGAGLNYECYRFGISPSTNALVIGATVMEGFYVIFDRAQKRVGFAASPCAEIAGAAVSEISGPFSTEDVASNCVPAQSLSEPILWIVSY
Protocol: Test 2: Inhibition of Human BACE-2
as §1, with “BACE-2” for “BACE-1”

[1] = test system: Soluble Abeta40 levels in the rat brain and CSF; test: Test 5: In Vivo Inhibitory Activity (Abeta lowering in rat brain and CSF); settings: male Sprague-Dawley rats, oral gavage, 10 micromoles per kilogram, 4 hours prior to sacrifice; n.s.=not statistically significant
Protocol: Test 5: In Vivo Inhibitory Activity of Example Compounds
Male Sprague-Dawley rats, 220-280 g weight, (Charles River, France) were dosed by oral gavage with vehicle alone (0.1% Tween80, 0.5% methylcellulose in water) or with compound suspended in vehicle at a dose of 10 micromoles compound per kilogram body weight, 4 hours prior to sacrifice. The 4 hour timepoint was selected in order to compare the activity of compounds that have sufficient pharmacokinetic and biodistribution properties to reduce total brain Abeta within approximately three half-lives of the rat brain Abeta40 peptide.
Immediately prior to sacrifice, anaesthetized rat (spontaneous inhalation, 2-5% Isoflurane and air) were fixed in a stereotaxic apparatus on a raised platform, with anesthesia maintained though a nose cone. The angle of the head was tilted downward, perpendicular to the body, and a hypodermic needle lowered through the skin behind the occipital ridge, into the Cisterna magna. Cerebrospinal fluid (CSF) was withdrawn (˜50-100 μL), dispensed into tubes (protein Lo-bind Eppendorf tubes for Abeta40 analysis, normal Eppendorph tubes for compound analysis), frozen on dry ice and stored at −80° C. until analysis. Rats were then immediately decapitated under anesthesia, trunk blood collected for analysis of compound levels and the brain retrieved. One half-forebrain was dissected by removing the cerebellum and olfactory bulbs, frozen in three pieces on a metal plate pre-cooled on frozen CO2 and stored in tubes at −80° C. until analysis for Abeta40. For the other half-brain, olfactory bulbs were discarded and a sagittal slice taken from the medial aspect, weighing ˜200-400 mg, placed in glass HPLC tubes and frozen on dry ice until analysis for compound levels.
Soluble Abeta40 levels in the rat brain and CSF were quantified using a Meso Scale Discovery (MSD) 96-well MULTI-ARRAY human/rodent (4G8) Abeta40 Ultrasensitive Assay (#K110FTE-3, Meso Scale Discovery, Gaithersburg, USA). Forebrain sample homogenates were prepared by sonication in 9 volumes (w/v) of ice cold TBA. Fifty μL of 2% TX-100 in TBS-complete was added to 50 μL aliquots of the homogenate to reach a final concentration of 1% TX-100 in a 1:20 dilution. Samples were incubated on ice for 15 min interrupted with 3 short vortexing steps, then centrifuged (100 000×g, 4° C., 15 min), and 50 μL of supernatant collected. This was further diluted 1:5 with 3% Blocker A solution from the MSD kit to a final dilution of 1:100 and applied to the MSD plate. CSF samples containing blood were excluded. All other CSF samples were diluted with 1% Blocker A solution (from manufacturers kit) to reach a 1:20 CSF dilution. Calibration curves were prepared in 1% Blocker A solution spiked with synthetic Abeta1-40 peptide. Samples and calibration standards were applied in duplicate at a volume of 25 μL per well. Abeta40 concentrations of samples were estimated from the standard curve using SOFTmax PRO4.0.

[2] = Test 4: Inhibition of Cellular Release of Amyloid Peptide 1-40; type: cell-based, Chinese hamster; settings: Cricetulus griseus; CHO cells with human APP, 24 hours with compound; read-out: Test 4 Amyloid-β1-40 release IC50
Protocol: The cells are plated at a density of 8000 cells/well into 96-well microtiter plates and cultivated for 24 hours in DMEM cell culture medium containing 10% FCS. The test compound is added to the cells at various concentrations, and the cells are cultivated for 24 hours in the presence of the test compound. […] The potency of the compound is calculated from the percentage of inhibition of amyloid peptide release as a function of the test compound concentration.

Sequence of Human BACE-1 (P56817 46-457): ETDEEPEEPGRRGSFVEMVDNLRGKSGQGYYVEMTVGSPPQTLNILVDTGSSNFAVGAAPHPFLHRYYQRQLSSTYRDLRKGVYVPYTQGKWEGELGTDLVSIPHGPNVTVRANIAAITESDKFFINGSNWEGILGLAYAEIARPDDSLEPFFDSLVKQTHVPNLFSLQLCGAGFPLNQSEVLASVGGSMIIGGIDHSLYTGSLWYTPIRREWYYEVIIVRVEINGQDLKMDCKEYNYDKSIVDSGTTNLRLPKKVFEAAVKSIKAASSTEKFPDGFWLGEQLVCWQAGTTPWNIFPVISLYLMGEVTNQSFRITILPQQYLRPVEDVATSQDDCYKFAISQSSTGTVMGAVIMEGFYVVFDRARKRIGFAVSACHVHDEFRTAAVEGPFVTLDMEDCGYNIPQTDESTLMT

Compound: C[C@]1(c2nc(NC(=O)c3nn(C(F)F)cc3Cl)ccc2F)N=C(N)OCC1(F)F [Example 30, 4-Chloro-1-difluoromethyl-1H-pyrazole-3-carboxylic acid [6-((R)-2-amino-5,5-difluoro-4-methyl-5,6-dihydro-4H-[1,3]oxazin-4-yl)-5-fluoro-pyridin-2-yl]-amide]
- IC50 (Human BACE-1): 19 nM
- IC50 (Human BACE-2): 7 nM
- Abeta lowering in rat CSF [1]: −55.2%
- Abeta lowering in rat forebrain [1]: −46.6%
- IC50 [2]: 13 nM
